Measurements taken from US10774092B2 (SALK INSTITUTE FOR BIOLOGICAL STUDIES, priority 2014, dated 2020).

The compounds below were run against ULK1 (assay: ULK1 inhibition assay (Table 1)). Conditions: * = tested as a mixture of regioisomers.
Type: biochemical

SMILES | IC50
CC(Cl)CNc1nc(Nc2ccc3c(c2)CCC(=O)N3)ncc1C(F)(F)F (centres unmarked) [Example 183b, 6-((4-((2-chloropropyl)amino)-5-(trifluoromethyl)pyrimidin-2-yl)amino)-3,4-dihydroquinolin-2(1H)-one] | < 200 nM
CC(CCl)Nc1nc(Nc2ccc3c(c2)CCC(=O)N3)ncc1C(F)(F)F (centres unmarked) [Example 183c, 6-((4-((1-chloropropan-2-yl)amino)-5-(trifluoromethyl)pyrimidin-2-yl)amino)-3,4-dihydroquinolin-2(1H)-one] | > 2000 nM
CN(c1ccccc1)c1nc(Nc2ccc3c(c2)CCC(=O)N3)ncc1C(F)(F)F [Example 184a, 6-((4-(methyl(phenyl)amino)-5-(trifluoromethyl)pyrimidin-2-yl)amino)-3,4-dihydroquinolin-2(1H)-one] | 200 to 2000 nM
CN(c1ccccc1)c1ncc(C(F)(F)F)c(Nc2ccc3c(c2)CCC(=O)N3)n1 [Example 184b, 6-((2-(methyl(phenyl)amino)-5-(trifluoromethyl)pyrimidin-4-yl)amino)-3,4-dihydroquinolin-2(1H)-one] | < 200 nM
Oc1ncc(C(F)(F)F)c(NC2CC2)n1 [Example 189, 4-(cyclopropylamino)-5-(trifluoromethyl)pyrimidin-2-ol] | > 2000 nM
FC(F)(F)c1cnc(Nc2cccnc2)nc1NC1CC1 [Example 196, N4-cyclopropyl-N2-(pyridin-3-yl)-5-(trifluoromethyl) pyrimidine-2,4-diamine] | > 2000 nM
O=C1CCc2cc(Nc3ncc(C(F)(F)F)c(NC4CNC4)n3)ccc2N1 [Example 198a, 6-((4-(azetidin-3-ylamino)-5-(trifluoromethyl)pyrimidin-2-yl)amino)-3,4-dihydroquinolin-2(1H)-one] | 200 to 2000 nM
O=C1CCc2cc(Nc3ncc(C(F)(F)F)c(NC4CN(c5nc(Nc6ccc7c(c6)CCC(=O)N7)ncc5C(F)(F)F)C4)n3)ccc2N1 [Example 198b, 6-((4-(3-((2-((2-oxo-1,2,3,4-tetrahydroquinolin-6-yl)amino)-5-(trifluoromethyl)pyrimidin-4-yl)amino)azetidin-1-yl)-5-(trifluoromethyl)pyrimidin-2-yl)amino)-3,4-dihydroquinolin-2(1H)-one] | > 2000 nM
FC(F)(F)c1cnc(Nc2cncnc2)nc1NC1CC1 [Example 203, N4-cyclopropyl-N2-(pyrimidin-5-yl)-5-(trifluoromethyl) pyrimidine-2,4-diamine] | < 200 nM
c1cc(NC2CC2)nc(Nc2cnc3[nH]ccc3c2)n1 [Example 204, N4-cyclopropyl-N2-(1H-pyrrolo[2,3-b]pyridin-5-yl)pyrimidine-2,4-diamine] | > 2000 nM
OC1Nc2ccc(Nc3ncc(C(F)(F)F)c(NC4CC4)n3)cc2O1 (centres unmarked) [Example 208b, 6-((4-(cyclopropylamino)-5-(trifluoromethyl)pyrimidin-2-yl)amino)-2,3-dihydrobenzo[d]oxazol-2-ol] | < 200 nM
O=C1CCc2cc(Nc3ncc(C(F)(F)F)c(OCCNCCO)n3)ccc2N1 [Example 212b, 6-((4-(2-((2-hydroxyethyl)amino)ethoxy)-5-(trifluoromethyl)pyrimidin-2-yl)amino)-3,4-dihydroquinolin-2(1H)-one] | 200 to 2000 nM
FC(F)(F)c1cnc(Nc2ccon2)nc1NC1CC1 [Example 214a, N4-cyclopropyl-N2-(isoxazol-3-yl)-5-(trifluoromethyl)pyrimidine-2,4-diamine] | 200 to 2000 nM
N=c1ccon1-c1ncc(C(F)(F)F)c(NC2CC2)n1 [Example 214b, N-cyclopropyl-2-(3-iminoisoxazol-2(3H)-yl)-5-(trifluoromethyl)pyrimidin-4-amine] | > 2000 nM
CN(C)c1nc(Nc2ccc3c(c2)CCC(=O)N3)ncc1C(F)(F)F [Example 220b, 6-((4-(dimethylamino)-5-(trifluoromethyl)pyrimidin-2-yl)amino)-3,4-dihydroquinolin-2(1H)-one] | < 200 nM
c1cc(NC2CC2)nc(Nc2ccc3c(c2)OCCO3)n1 [Example 224, N4-cyclopropyl-N2-(2,3-dihydrobenzo[b][1,4]dioxin-6-yl)pyrimidine-2,4-diamine] | > 2000 nM
O=C1CCc2cc(Nc3ncc(C(F)(F)F)c(OC4COC4)n3)ccc2N1 [Example 231a, 6-((4-(oxetan-3-yloxy)-5-(trifluoromethyl)pyrimidin-2-yl)amino)-3,4-dihydroquinolin-2(1H)-one] | < 200 nM
O=C1CCc2cc(Nc3ncc(C(F)(F)F)c(O)n3)ccc2N1 [Example 231b, 6-((4-hydroxy-5-(trifluoromethyl)pyrimidin-2-yl)amino)-3,4-dihydroquinolin-2(1H)-one] | > 2000 nM
O=c1[nH]c2ccc(Nc3nccc(NC4CC4)n3)cc2[nH]1 [Example 232, 5-((4-(cyclopropylamino)pyrimidin-2-yl)amino)-1,3-dihydro-2H-benzo[d]imidazol-2-one] | > 2000 nM
O=c1[nH]c2ccc(Nc3ncc(Br)c(Nc4ccc5[nH]c(=O)[nH]c5c4)n3)cc2[nH]1 [Example 233, 5,5′-((5-bromopyrimidine-2,4-diyl)bis(azanediyl))bis(1,3-dihydro-2H-benzoimidazol-2-one)] | < 200 nM
COc1cc(Nc2ncc(Cl)c(N(C)C(=O)c3ccccc3O)n2)cc(OC)c1OC [Example 234b, N-(5-chloro-2-((3,4,5-trimethoxyphenyl)amino)pyrimidin-4-yl)-2-hydroxy-N-methylbenzamide] | 200 to 2000 nM

SMILES | IC50
O=C1Cc2cc(Nc3ncc(C(F)(F)F)c(NC4CC4)n3)ccc2N1 [Example 240, 5-((4-(cyclopropylamino)-5-(trifluoromethyl)pyrimidin-2-yl)amino)indolin-2-one] | < 200 nM
CNC(=O)c1cccc(Oc2nc(Nc3cc(OC)c(OC)c(OC)c3)ncc2Br)c1 [Example 242, 3-((5-bromo-2-((3,4,5-trimethoxyphenyl)amino)pyrimidin-4-yl)oxy)-N-methylbenzamide] | 200 to 2000 nM
COc1cc(Nc2ncc(Br)c(Oc3ccccc3C(=O)N(C)C)n2)cc(OC)c1OC [Example 245, 2-((5-bromo-2-((3,4,5-trimethoxyphenyl)amino)pyrimidin-4-yl)oxy)-N,N-dimethylbenzamide] | < 200 nM
COc1cc(Nc2ncc(Br)c(Oc3ccccc3C(N)=O)n2)cc(OC)c1OC [Example 249, 2-((5-bromo-2-((3,4,5-trimethoxyphenyl)amino)pyrimidin-4-yl)oxy)benzamide] | < 200 nM
CNC(=O)c1cccc(OC)c1Oc1nc(Nc2cc(OC)c(OC)c(OC)c2)ncc1Br [Example 252, 2-((5-bromo-2-((3,4,5-trimethoxyphenyl)amino)pyrimidin-4-yl)oxy)-3-methoxy-N-methylbenzamide] | < 200 nM
COc1cc(Nc2ncc(Br)c(Oc3ccccc3NC(C)=O)n2)cc(OC)c1OC [Example 254a, N-(2-((5-bromo-2-((3,4,5-trimethoxyphenyl)amino)pyrimidin-4-yl)oxy)phenyl)acetamide] | < 200 nM
COc1cc(Nc2ncc(Br)c(Oc3ccccc3N)n2)cc(OC)c1OC [Example 254b, 4-(2-aminophenoxy)-5-bromo-N-(3,4,5-trimethoxyphenyl)pyrimidin-2-amine] | < 200 nM
CNC(=O)c1c(O)cccc1Oc1nc(Nc2cc(OC)c(OC)c(OC)c2)ncc1Br [Example 257, 2-((5-bromo-2-((3,4,5-trimethoxyphenyl)amino)pyrimidin-4-yl)oxy)-6-hydroxy-N-methylbenzamide] | < 200 nM
O=C1CCc2cc(Nc3ncc(C(F)(F)F)c(OCCNC(=O)OCc4ccccc4)n3)ccc2N1 [Example 261, Benzyl (2-((2-((2-oxo-1,2,3,4-tetrahydroquinolin-6-yl)amino)-5-(trifluoromethyl)pyrimidin-4-yl)oxy)ethyl)carbamate] | > 2000 nM
O=C1CCc2cc(Nc3nc(NC4CC4)c4ccccc4n3)ccc2N1 [Example 263, 6-((4-(cyclopropylamino)quinazolin-2-yl)amino)-3,4-dihydroquinolin-2(1H)-one] | > 2000 nM
COc1cc(Nc2ncc(Br)c(Oc3ccccc3)n2)cc(OC)c1OC [Example 266, 5-bromo-4-phenoxy-N-(3,4,5-trimethoxyphenyl)pyrimidin-2-amine] | < 200 nM
CNC(=O)c1cccc(Oc2nc(Nc3ccc4c(c3)CCC(=O)N4)ncc2Br)c1 [Example 268, 3-((5-bromo-2-((2-oxo-1,2,3,4-tetrahydroquinolin-6-yl)amino)pyrimidin-4-yl)oxy)-N-methylbenzamide] | 200 to 2000 nM
COc1cc(Nc2ncc(Br)c(Oc3ccccc3C(=O)NC3CC3)n2)cc(OC)c1OC [Example 270, 2-((5-bromo-2-((3,4,5-trimethoxyphenyl)amino)pyrimidin-4-yl)oxy)-N-cyclopropylbenzamide] | 200 to 2000 nM
COCc1ccccc1Oc1nc(Nc2cc(OC)c(OC)c(OC)c2)ncc1Br [Example 274, 5-bromo-4-(2-(methoxymethyl)phenoxy)-N-(3,4,5-trimethoxyphenyl)pyrimidin-2-amine] | < 200 nM
COc1cc(Nc2ncc(Br)c(Oc3ccccc3C(=O)N3CCCC3)n2)cc(OC)c1OC [Example 277, (2-((5-bromo-2-((3,4,5-trimethoxyphenyl)amino)pyrimidin-4-yl)oxy)phenyl)(pyrrolidin-1-yl)methanone] | < 200 nM
FC(F)(F)c1cnc(Nc2cccc3ncccc23)nc1NC1CC1 [Example 278, N4-cyclopropyl-N2-(quinolin-5-yl)-5-(trifluoromethyl) pyrimidine-2,4-diamine] | > 2000 nM
COc1cc(Nc2ncc(Br)c(Oc3ccccc3NC(=O)C3CC3)n2)cc(OC)c1OC [Example 281, N-(2-((5-bromo-2-((3,4,5-trimethoxyphenyl)amino)pyrimidin-4-yl)oxy)phenyl)cyclopropanecarboxamide] | < 200 nM
N#Cc1cnc(NC2CC2)nc1Nc1ccc2c(c1)CCC(=O)N2 [Example 287] | > 2000 nM
COc1cc(Nc2ncc(Br)c(Oc3ccccc3-c3nc(C)co3)n2)cc(OC)c1OC [Example 290, 5-bromo-4-(2-(4-methyloxazol-2-yl)phenoxy)-N-(3,4,5-trimethoxyphenyl)pyrimidin-2-amine] | > 2000 nM
O=[N+]([O-])c1cnc(NC2CC2)nc1NC1CC1 [Example 291b, N2,N4-dicyclopropyl-5-nitropyrimidine-2,4-diamine] | > 2000 nM
